Experiments:
Experiment in all cases: Post-emergence herbicidal activity test (stem and leaf spray, pot culture)
Format in all cases: in vivo
Conditions in all cases: 3 weeks after spraying
[1] = test system: Trifoliumre pensL.
Procedure, shortened: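 Pot-grown weeds in loam (pH 7), greenhouse at 20–30 °C, sprayed once post-emergence at the 2–3-leaf stage. Compound in acetone with Tween 80 plus methyl oleate oil (1.5 L/ha), applied at 10, 5 and 2.5 g/mu by spray tower. Effect scored 3 weeks after spraying, averaged over three repeats.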

[2] = test system: Echinochloa crusgalli
Procedure, shortened: (§1)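 Activity is given as a 0–5 grade of fresh weight growth control, scored three weeks after a single stem-and-leaf spray. Weeds in farmland loam were treated at the 2- to 3-leaf stage at 10, 5 and 2.5 g/mu, with methyl oleate added as synergist.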

[3] = test system: Setaria viridis
Procedure, shortened: as §1

[4] = test system: Amaranthus retroflexus
Procedure, shortened: as §1

[5] = test system: Portulaca oleracea
Procedure, shortened: as §1

[6] = test system: Abutilon theophrasti
Procedure, shortened: as §1

Row | SMILES | Post-emergence herbicidal activity, Trifoliumre pensL. (grade) ([1]; dosage 2.5 g/mu) | Post-emergence herbicidal activity, Trifoliumre pensL. (grade) ([1]; dosage 5 g/mu) | Post-emergence herbicidal activity, Trifoliumre pensL. (grade) ([1]; dosage 10 g/mu) | Post-emergence herbicidal activity, E. crusgalli (grade) ([2]; dosage 2.5 g/mu) | Post-emergence herbicidal activity, E. crusgalli (grade) ([2]; dosage 5 g/mu) | Post-emergence herbicidal activity, E. crusgalli (grade) ([2]; dosage 10 g/mu) | Post-emergence herbicidal activity, S. viridis (grade) ([3]; dosage 2.5 g/mu) | Post-emergence herbicidal activity, S. viridis (grade) ([3]; dosage 5 g/mu) | Post-emergence herbicidal activity, S. viridis (grade) ([3]; dosage 10 g/mu) | Post-emergence herbicidal activity, A. retroflexus (grade) ([4]; dosage 2.5 g/mu) | Post-emergence herbicidal activity, A. retroflexus (grade) ([4]; dosage 5 g/mu) | Post-emergence herbicidal activity, A. retroflexus (grade) ([4]; dosage 10 g/mu) | Post-emergence herbicidal activity, P. oleracea (grade) ([5]; dosage 2.5 g/mu) | Post-emergence herbicidal activity, P. oleracea (grade) ([5]; dosage 5 g/mu) | Post-emergence herbicidal activity, P. oleracea (grade) ([5]; dosage 10 g/mu) | Post-emergence herbicidal activity, A. theophrasti (grade) ([6]; dosage 2.5 g/mu) | Post-emergence herbicidal activity, A. theophrasti (grade) ([6]; dosage 5 g/mu) | Post-emergence herbicidal activity, A. theophrasti (grade) ([6]; dosage 10 g/mu)
1 | O=C1C2=C(CCCC2)C(=O)N1c1cc(OCc2nc(-c3ccc(F)c(F)c3)no2)c(Cl)cc1F [Compound A14] | 4 (Grade 4: the growth control rate is greater than or equal to 60% and less than 85%) | 5 (Grade 5: the growth control rate is greater than or equal to 85%) | 5 (Grade 5: the growth control rate is greater than or equal to 85%) | 1 (Grade 1: the growth control rate is greater than or equal to 5% and less than 20%) | 2 (Grade 2: the growth control rate is greater than or equal to 20% and less than 40%) | 3 (Grade 3: the growth control rate is greater than or equal to 40% and less than 60%) | 2 (Grade 2: the growth control rate is greater than or equal to 20% and less than 40%) | 3 (Grade 3: the growth control rate is greater than or equal to 40% and less than 60%) | 4 (Grade 4: the growth control rate is greater than or equal to 60% and less than 85%) | 5 (Grade 5: the growth control rate is greater than or equal to 85%) | 5 (Grade 5: the growth control rate is greater than or equal to 85%) | 5 (Grade 5: the growth control rate is greater than or equal to 85%) | 4 (Grade 4: the growth control rate is greater than or equal to 60% and less than 85%) | 5 (Grade 5: the growth control rate is greater than or equal to 85%) | 5 (Grade 5: the growth control rate is greater than or equal to 85%) | 5 (Grade 5: the growth control rate is greater than or equal to 85%) | 5 (Grade 5: the growth control rate is greater than or equal to 85%) | 5 (Grade 5: the growth control rate is greater than or equal to 85%)
2 | Cc1ccc(-c2noc(COc3cc(N4C(=O)C5=C(CCCC5)C4=O)c(F)cc3Cl)n2)c(Cl)c1 [Compound A15] | 5 (Grade 5: the growth control rate is greater than or equal to 85%) | 5 (Grade 5: the growth control rate is greater than or equal to 85%) | 5 (Grade 5: the growth control rate is greater than or equal to 85%) | 1 (Grade 1: the growth control rate is greater than or equal to 5% and less than 20%) | 2 (Grade 2: the growth control rate is greater than or equal to 20% and less than 40%) | 3 (Grade 3: the growth control rate is greater than or equal to 40% and less than 60%) | 2 (Grade 2: the growth control rate is greater than or equal to 20% and less than 40%) | 3 (Grade 3: the growth control rate is greater than or equal to 40% and less than 60%) | 4 (Grade 4: the growth control rate is greater than or equal to 60% and less than 85%) | 5 (Grade 5: the growth control rate is greater than or equal to 85%) | 5 (Grade 5: the growth control rate is greater than or equal to 85%) | 5 (Grade 5: the growth control rate is greater than or equal to 85%) | 5 (Grade 5: the growth control rate is greater than or equal to 85%) | 5 (Grade 5: the growth control rate is greater than or equal to 85%) | 5 (Grade 5: the growth control rate is greater than or equal to 85%) | 5 (Grade 5: the growth control rate is greater than or equal to 85%) | 5 (Grade 5: the growth control rate is greater than or equal to 85%) | 5 (Grade 5: the growth control rate is greater than or equal to 85%)
3 | O=C1C2=C(CCCC2)C(=O)N1c1cc(OCc2nc(-c3ccc(Cl)nc3Cl)no2)c(Cl)cc1F [Compound A16] | 4 (Grade 4: the growth control rate is greater than or equal to 60% and less than 85%) | 5 (Grade 5: the growth control rate is greater than or equal to 85%) | 5 (Grade 5: the growth control rate is greater than or equal to 85%) | 1 (Grade 1: the growth control rate is greater than or equal to 5% and less than 20%) | 2 (Grade 2: the growth control rate is greater than or equal to 20% and less than 40%) | 3 (Grade 3: the growth control rate is greater than or equal to 40% and less than 60%) | 2 (Grade 2: the growth control rate is greater than or equal to 20% and less than 40%) | 3 (Grade 3: the growth control rate is greater than or equal to 40% and less than 60%) | 4 (Grade 4: the growth control rate is greater than or equal to 60% and less than 85%) | 5 (Grade 5: the growth control rate is greater than or equal to 85%) | 5 (Grade 5: the growth control rate is greater than or equal to 85%) | 5 (Grade 5: the growth control rate is greater than or equal to 85%) | 4 (Grade 4: the growth control rate is greater than or equal to 60% and less than 85%) | 5 (Grade 5: the growth control rate is greater than or equal to 85%) | 5 (Grade 5: the growth control rate is greater than or equal to 85%) | 5 (Grade 5: the growth control rate is greater than or equal to 85%) | 5 (Grade 5: the growth control rate is greater than or equal to 85%) | 5 (Grade 5: the growth control rate is greater than or equal to 85%)
4 | O=C1C2=C(CCCC2)C(=O)N1c1cc(OCc2nc(-c3cccc(C(F)(F)F)c3)no2)c(Cl)cc1F [Compound A17] | 4 (Grade 4: the growth control rate is greater than or equal to 60% and less than 85%) | 5 (Grade 5: the growth control rate is greater than or equal to 85%) | 5 (Grade 5: the growth control rate is greater than or equal to 85%) | 1 (Grade 1: the growth control rate is greater than or equal to 5% and less than 20%) | 2 (Grade 2: the growth control rate is greater than or equal to 20% and less than 40%) | 3 (Grade 3: the growth control rate is greater than or equal to 40% and less than 60%) | 2 (Grade 2: the growth control rate is greater than or equal to 20% and less than 40%) | 3 (Grade 3: the growth control rate is greater than or equal to 40% and less than 60%) | 4 (Grade 4: the growth control rate is greater than or equal to 60% and less than 85%) | 5 (Grade 5: the growth control rate is greater than or equal to 85%) | 5 (Grade 5: the growth control rate is greater than or equal to 85%) | 5 (Grade 5: the growth control rate is greater than or equal to 85%) | 4 (Grade 4: the growth control rate is greater than or equal to 60% and less than 85%) | 5 (Grade 5: the growth control rate is greater than or equal to 85%) | 5 (Grade 5: the growth control rate is greater than or equal to 85%) | 5 (Grade 5: the growth control rate is greater than or equal to 85%) | 5 (Grade 5: the growth control rate is greater than or equal to 85%) | 5 (Grade 5: the growth control rate is greater than or equal to 85%)
